Laboratory results: paper PMC8252765, “Human Oxygenase Variants Employing a Single Protein Fe^II Ligand Are Catalytically Active” (Angewandte Chemie (International Ed. in English), 2021)
Numbering of substitutions follows the chain as printed. Read-outs that look alike come from different tables or passages of the source.

Assays:
[1] = target: T1, H679A His6-AspH315-758 (Homo sapiens, UniProt Q12797, H679A); assay: Steady-state kinetics of H679A AspH by SPE-MS; type: biochemical; settings: H679A AspH 0.2 μM, parameter for the varied (co)substrate (label), 25 mM HEPES pH 7.5, n=3
T1 construct: containing H679A or H725A His6-AspH315-758 variant (0.2 μM); made in house; host or cells: E. coli BL21 (DE3), pET-28a(+)
T1 sequence (Q12797 315-758 H679A): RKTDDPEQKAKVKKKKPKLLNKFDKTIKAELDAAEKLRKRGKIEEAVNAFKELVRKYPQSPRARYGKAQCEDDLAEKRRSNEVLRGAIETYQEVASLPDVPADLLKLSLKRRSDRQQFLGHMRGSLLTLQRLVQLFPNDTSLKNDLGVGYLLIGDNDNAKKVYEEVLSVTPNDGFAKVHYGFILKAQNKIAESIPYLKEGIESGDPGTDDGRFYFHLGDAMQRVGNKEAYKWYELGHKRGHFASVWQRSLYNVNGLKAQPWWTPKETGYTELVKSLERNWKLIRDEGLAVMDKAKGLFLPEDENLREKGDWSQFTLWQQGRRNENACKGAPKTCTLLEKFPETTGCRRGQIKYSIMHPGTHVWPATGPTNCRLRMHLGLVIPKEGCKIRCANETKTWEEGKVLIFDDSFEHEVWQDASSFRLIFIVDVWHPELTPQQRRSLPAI
Protocol: Supporting Figure S5. […] Turnover […]
numbers (kapp or k ) and Michaelis constants (Kapp or K ) of the H679A AspH variant were determined in […]
MS (SPE-MS parameters are given i n Section 2 of the Supporting Information ). Conditions: 0.2 μM H679A His6- […]
HEPES (pH 7.5, 20° C). Measurement times were normalized to the first sample injection analysed after the […]
Data are shown as the mean average of three independent runs (n = 3; mean ± standard deviation, SD).
Turnover numbers (kapp or k ) were calculated from the maximum velocities (vapp or v ) values obtained, […]
assuming ideal active site availability as supported by a reported active site titration of wt AspH.[4] […]
substrate in the absence of LAA for the shown Fe(II) concentrations (conditions: 0.2 μM H679A His6-AspH315- […]
substrate in the presence of LAA for the shown Fe(II) concentrations (conditions: 0.2 μM H679A His6-AspH315- […]

[2] = target: T2, H725A His6-AspH315-758 (Homo sapiens, UniProt Q12797, H725A); assay: Steady-state kinetics of H725A AspH by SPE-MS; type: biochemical; settings: H725A AspH 0.2 μM, parameter for the varied (co)substrate (label), 25 mM HEPES pH 7.5, n=3
T2 construct: containing H679A or H725A His6-AspH315-758 variant (0.2 μM); made in house; host or cells: E. coli BL21 (DE3), pET-28a(+)
T2 sequence (Q12797 315-758 H725A): T1 sequence (Q12797 315-758 H679A) with A365H, H411A
Protocol: page 11: Supporting Figure S6. Kinetic parameters for […] AspH (continues on the following page). Turnover numbers (kapp or k ) and Michaelis constants (Kapp or K ) of the […] AspH-catalysed hydroxylation of […] peptide by SPE- MS (SPE-MS parameters are given in Section 2 of the Supporting Information). […] HEPES (pH 7.5, 20° C). […] Data are shown as the mean average of three independent runs (n = 3; mean ± standard deviation, SD). Turnover numbers (kapp or k ) were calculated from the maximum velocities (vapp or v ) values obtained, cat cat max max assuming ideal active site availability as supported by a reported active site titration of wt AspH.[4] (a) Time course of the […] AspH for Fe(II) in the absence of LAA; (c) Kapp of […] AspH for Fe(II) in the absence m of LAA. (d) Time course of the […] AspH for Fe(II) in the presence of LAA; (f) Kapp of […] AspH for Fe(II) in the m presence of LAA. […] AspH variant-catalysed hydroxylation reaction of […] (k) hydroxylation rates used to determine kinetic parameters of […] AspH for […]. […] AspH for […] peptide substrate. […]

[3] = system: γ‐butyrobetaine hydroxylase; set-up: method as in PMID 22730246; settings: reported value; cited from earlier work
[4] = target: T1, H679A His6-AspH315-758; assay: H679A AspH variant SPE-MS inhibition assay; type: biochemical
[5] = target: T2, H725A His6-AspH315-758; assay: H725A AspH variant SPE-MS inhibition assay; type: biochemical
[6] = system: wt AspH; settings: cited from earlier work
[7] = system: T3, wt His6-AspH315-758; assay: Steady-state kinetics of wt AspH by SPE-MS; type: biochemical, human; settings: wt AspH 0.1 μM, parameter for the varied (co)substrate (label), 25 mM HEPES pH 7.5, 50 mM NaCl, n=3
T3 construct: Conditions: 0.1 μM wt His6-AspH315-758 using; His6 (N); made in house
Protocol: Supporting Figure S4. Kinetic parameters for wt AspH (continues on the following page). Turnover numbers […]
ammonium iron(II) sulfate hexahydrate (FAS, (NH 4)2Fe(SO 4)2·6H2O), both in the presence and absence of L - ascorbic acid (LAA ) monitoring the AspH-catalysed hydroxylation of the hFX-EGFD186-124-4Ser peptide (Supporting Figure S2a) by SPE-MS (SPE-MS parameters are given in Section 2 of the Supporting Information).
Conditions: 0.1 μM wt His6-AspH315-758 using
C; note, to increase enzyme activity, 50 mM NaCl was added to the reaction buffer). Measurement times were normalized to the first sample injection analysed after the addition of the Enzyme Mixture to the Substrate Mixture […]
Data are shown as the mean average of three independent runs (n = 3; mean ± standard deviation, SD). Turnover numbers (kapp) were calculated from the […]
maximum velocities (vapp ) values obtained, assuming ideal active site availability as supported by a reported […]
active site titration of wt AspH.[4]
(a) Time course of the wt AspH-catalysed hydroxylation reaction of the hFX-EGFD186-124-4Ser peptide substrate […]
and 4.0 μM hFX-EGFD1 86-124-4Ser); (b) hydroxylation rates used to determine kinetic parameters of wt AspH for Fe(II) in the absence of LAA; ( c) Kapp of wt AspH for Fe(II) in the absence of LAA.
(d) Time course of the wt AspH-catalysed hydroxylation reaction of the hFX-EGFD186-124-4Ser peptide substrate in the presence of LAA for the shown Fe(II) concentrations (conditions: 0.1 μM wt His6-AspH315-758, 100 μM […]
parameters of wt AspH for Fe(II) in the presence of LAA; (f) Kapp of wt AspH for Fe(II) in the presence of LAA. […]
(g) Time course of the wt AspH-catalysed hydroxylation reaction of the hFX-EGFD186-124-4Ser peptide substrate […]
(1 picture or pasted object on this page, not shown here)

[8] = 0.1 μM H679A AspH, 4.0 μM hFX-EGFD1_86-124-4Ser, 110 μM 2OG, 4 μM Fe^II, SPE-MS, n=2, read-out: IC50
[9] = 0.1 μM H725A AspH, 4.0 μM hFX-EGFD1_86-124-4Ser, 215 μM 2OG, 10 μM Fe^II, SPE-MS, n=2, read-out: IC50

`O=C(O)CCC(=O)C(=O)O` [2OG, 2‐oxoglutarate] showed a Kmapp ([1]; with LAA (400 μM)) of 109 ± 20 µM, a kcatapp ([1]; with LAA (400 μM)) of 0.18 ± 0.01 s⁻¹ and a Kmapp ([2]; with LAA (400 μM)) of 211 ± 65 µM. For the same compound, the kcatapp ([2]; with LAA (400 μM)) was 0.08 ± 0.01 s⁻¹ and the “2OG Kmapp‐value” [3] was 150 to 470 µM.
In the case of `[Cl-].[Cl-].[Co+2]` [CoCl2], the IC50 ([4]; n=2, read-out: IC50) is given as 1500 ± 200 nM, the IC50 ([5]; n=2, read-out: IC50) is given as 3000 ± 500 nM and the IC50 [6] is given as 400 ± 200 nM.
In the case of `[Cl][Mn][Cl]` [MnCl2], the IC50 [4, 8] is listed as 23100 ± 8600 nM, the IC50 [5, 9] is listed as over 40000 nM and the IC50 ([6]; wt AspH, 2 μM Fe^II, 3 μM 2OG) is listed as 5100 ± 1100 nM.
In the case of `O=S(=O)([O-])[O-].[Ni+2]` [NiSO4], the IC50 ([4]; read-out: IC50) is given as 2700 ± 400 nM, the IC50 ([5]; read-out: IC50) is given as 1800 ± 400 nM and the IC50 [6] is given as 170 ± 80 nM.
With `O=C(O)CNC(=O)C(=O)O` [N‐oxalyl‐glycine (NOG), N‐oxalylglycine] the IC50 ([4]; 0.1 μM H679A AspH, 4.0 μM hFX-EGFD1_86-124-4Ser, 110 μM 2OG, 4 μM Fe^II, SPE-MS, n=2) was “inactive”, the IC50 ([4]; 0.1 μM H679A AspH, 4.0 μM hFX-EGFD1_86-124-4Ser, 110 μM 2OG, 4 μM Fe^II, SPE-MS, n=2, listed as NOG) was “does not apparently inhibit” and the IC50 ([5]; 0.1 μM H725A AspH, 4.0 μM hFX-EGFD1_86-124-4Ser, 215 μM 2OG, 10 μM Fe^II, SPE-MS, n=2) was “inactive”. The IC50 ([5]; 0.1 μM H725A AspH, 4.0 μM hFX-EGFD1_86-124-4Ser, 215 μM 2OG, 10 μM Fe^II, SPE-MS, n=2, listed as NOG) was “does not apparently inhibit” and the IC50 [6] was 1100 ± 300 nM.
In the case of `CC(=O)[O-].CC(=O)[O-].[Zn+2]` [Zn(OAc)2], the IC50 [4, 8] is listed as 160 ± 10 nM, the IC50 [5, 9] is listed as 160 ± 10 nM and the IC50 ([6]; wt AspH, 2 μM Fe^II, 3 μM 2OG) is listed as 50 ± 10 nM.
For `O=C(O)c1ccnc(C(=O)O)c1` [pyridine‐2,4‐dicarboxylic acid], the IC50 ([4]; read-out: IC50) is given as 130 ± 10 nM, the IC50 ([5]; read-out: IC50) is given as 11200 ± 1400 nM and the IC50 ([6]; wt AspH, 2 μM Fe^II, 3 μM 2OG) is given as 30 ± 10 nM. For the same compound, the IC50 ([6]; wt AspH, at 3 μM 2OG) was about 30 nM and the IC50 ([6]; wt AspH, at 200 μM 2OG) was about 100 nM.
For “ammonium iron(II) sulfate hexahydrate [Fe^II]”, the Kmapp ([7]; with LAA (100 μM)) was 4.3 ± 1.6 µM, the kcatapp ([7]; with LAA (100 μM)) was 0.27 ± 0.04 s⁻¹ and the Kmapp ([7]; without LAA) was 7.2 ± 2.6 µM. The kcatapp ([7]; without LAA, hFX-EGFD1 peptide hydroxylation) was 0.24 ± 0.04 s⁻¹, the Kmapp ([1]; with LAA (400 μM)) was 2.7 ± 0.5 µM and the kcatapp ([1]; with LAA (400 μM)) was 0.19 ± 0.01 s⁻¹. The Kmapp ([1]; without LAA) was 4.4 ± 0.8 µM, the kcatapp ([1]; without LAA) was 0.18 ± 0.01 s⁻¹ and the Kmapp ([2]; with LAA (400 μM)) was 8.1 ± 1.8 µM. It also gave a kcatapp ([2]; with LAA (400 μM)) of 0.10 ± 0.01 s⁻¹, a Kmapp ([2]; without LAA) of 12.3 ± 3.0 µM and a kcatapp ([2]; without LAA) of 0.09 ± 0.01 s⁻¹.
